Measured values: US7238694B2, “Rifamycin imino derivatives effective against drug-resistant microbes” (Cumbre Pharmaceuticals, Inc., priority 2004, dated 2007)
Values after ≈ are worked out from the molar mass of the structure shown.

What was measured:
Assay type in all cases: cell-based
[1] = tested on: Staphylococcus aureus ATCC29213; test: MIC, microbroth dilution (NCCLS); settings: rifS strain, Cation-Adjusted Mueller-Hinton Broth, 37° C., read-out: MIC
[2] = tested on: Staphylococcus aureus ATCC29213 rpoB^H418Y; test: microbe, parasite or virus in culture; settings: Staphylococcus aureus, ATCC29213; rifR strain; Cation-Adjusted Mueller-Hinton Broth, 37° C.; read-out: MIC
[3] = tested on: Staphylococcus aureus MT1222 gyrA^A116E grlB^S80F; test: microbe, parasite or virus in culture; settings: cipR strain, Cation-Adjusted Mueller-Hinton Broth, 37° C., read-out: MIC
[4] = tested on: Staphylococcus epidermidis ATCC12228; test: MIC, microbroth dilution (NCCLS); settings: rifS strain, Cation-Adjusted Mueller-Hinton Broth, 37° C., read-out: MIC
[5] = tested on: Streptococcus pneumoniae ATCC6303; test: MIC, microbroth dilution (NCCLS); settings: rifS strain, THY Broth with 1 mg/mL catalase, 5% CO2, 37° C., read-out: MIC
[6] = tested on: Streptococcus pyogenes ATCC19615; test: MIC, microbroth dilution (NCCLS); settings: rifS strain, THY Broth, 37° C., read-out: MIC
[7] = tested on: Haemophilus influenzae ATCC10211; test: MIC, microbroth dilution (NCCLS); settings: rifS strain, BHI Broth with NAD and hematin, 37° C., read-out: MIC

SMILES	MIC [1]	MIC [2]	MIC [3]	MIC [4]	MIC [5]	MIC [6]	MIC [7]
CO[C@H]1/C=C/O[C@@]2(C)Oc3c(C)c(O)c4c(O)c(c(/C=N/N(C)C5CCN(c6nc7c(cc6F)c(=O)c(C(=O)O)cn7-c6ccc(F)cc6F)C5)c(O)c4c3C2=O)NC(=O)/C(C)=C\C=C\[C@H](C)[C@H](O)[C@@H](C)[C@@H](O)[C@@H](C)[C@H](OC(C)=O)[C@@H]1C (mixture of isomers) [Example 43, (R/S)-3-[1-[3-Carboxy-1-(2,4-difluoro-phenyl)-6-fluoro-4-oxo-1,4-dihydro-[1,8]naphthyridin-7-yl]-pyrrolidinyl-3-N′-methylhydrazinomethylenyl]rifamycin SV]	0.008 to 1 µg/mL (≈ 0.00701 to 0.876 µM)	0.06 to 16 µg/mL (≈ 0.0526 to 14 µM)	0.008 to 0.125 µg/mL (≈ 0.00701 to 0.11 µM)	0.008 to 0.1 µg/mL (≈ 0.00701 to 0.0876 µM)	0.008 to 0.06 µg/mL (≈ 0.00701 to 0.0526 µM)	0.008 to 0.03 µg/mL (≈ 0.00701 to 0.0263 µM)	0.125 to 4 µg/mL (≈ 0.11 to 3.51 µM)
CO[C@H]1/C=C/O[C@@]2(C)Oc3c(C)c(O)c4c(O)c(c(/C=N/N5CCN(c6c(F)cc7c(=O)c(C(=O)O)cn8c7c6OCC8C)CC5C)c(O)c4c3C2=O)NC(=O)/C(C)=C\C=C\[C@H](C)[C@H](O)[C@@H](C)[C@@H](O)[C@@H](C)[C@H](OC(C)=O)[C@@H]1C (mixture of isomers) [Example 44, (R/S)-3-[9-fluoro-3-methyl-10-(3-methyl-piperazin-1-hydrazinomethylenyl)-7-oxo-7H-pyrido[1,2,3-de]-1,4-benzoxazine-6-carboxylic acid]rifamycin SV]	0.008 to 1 µg/mL (≈ 0.00738 to 0.922 µM)	0.06 to 16 µg/mL (≈ 0.0553 to 14.8 µM)	0.008 to 0.125 µg/mL (≈ 0.00738 to 0.115 µM)	0.008 to 0.1 µg/mL (≈ 0.00738 to 0.0922 µM)	0.008 to 0.06 µg/mL (≈ 0.00738 to 0.0553 µM)	0.008 to 0.03 µg/mL (≈ 0.00738 to 0.0277 µM)	0.125 to 4 µg/mL (≈ 0.115 to 3.69 µM)
CO[C@H]1/C=C/O[C@@]2(C)Oc3c(C)c(O)c4c(O)c(c(/C=N/N5CCC(NC6(C7CCN(c8c(F)cc9c(=O)c(C(=O)O)cn(C%10CC%10)c9c8Cl)C7)CC6)CC5)c(O)c4c3C2=O)NC(=O)/C(C)=C\C=C\[C@H](C)[C@H](O)[C@@H](C)[C@@H](O)[C@@H](C)[C@H](OC(C)=O)[C@@H]1C (mixture of isomers) [Example 45, (R/S)-3-[4-[1-[1-(3-Carboxy-1-cyclopropyl-7-fluoro-8-chloro-4-oxo-4H-quinolin-7-yl)pyrrolidin-3-yl]cycloprop-1-ylamino]piperidin-1-ylaminomethylenyl]rifamycin SV]	0.008 to 1 µg/mL (≈ 0.0066 to 0.825 µM)	0.06 to 16 µg/mL (≈ 0.0495 to 13.2 µM)	0.008 to 0.125 µg/mL (≈ 0.0066 to 0.103 µM)	0.008 to 0.1 µg/mL (≈ 0.0066 to 0.0825 µM)	0.008 to 0.06 µg/mL (≈ 0.0066 to 0.0495 µM)	0.008 to 0.03 µg/mL (≈ 0.0066 to 0.0248 µM)	0.125 to 4 µg/mL (≈ 0.103 to 3.3 µM)
COc1c(N2CCC(C3(NC4CCN(/N=C/c5c6c(O)c7c(O)c(C)c8c(c7c5O)C(=O)[C@@](C)(O/C=C/[C@H](OC)[C@@H](C)[C@@H](OC(C)=O)[C@H](C)[C@H](O)[C@H](C)[C@@H](O)[C@@H](C)/C=C/C=C(/C)C(=O)N6)O8)CC4)CC3)C2)c(F)cc2c(=O)c(C(=O)O)cn(C3CC3)c12 (mixture of isomers) [Example 46]	0.008 to 1 µg/mL (≈ 0.00663 to 0.828 µM)	0.06 to 16 µg/mL (≈ 0.0497 to 13.3 µM)	0.008 to 0.125 µg/mL (≈ 0.00663 to 0.104 µM)	0.008 to 0.1 µg/mL (≈ 0.00663 to 0.0828 µM)	0.008 to 0.06 µg/mL (≈ 0.00663 to 0.0497 µM)	0.008 to 0.03 µg/mL (≈ 0.00663 to 0.0248 µM)	0.125 to 4 µg/mL (≈ 0.104 to 3.31 µM)
CO[C@H]1/C=C/O[C@@]2(C)Oc3c(C)c(O)c4c(O)c(c(/C=N/N5CCN(c6cc7c(cc6F)c(=O)c(C(=O)O)cn7C6CC6)CC5)c(O)c4c3C2=O)NC(=O)/C(C)=C\C=C\[C@H](C)[C@H](O)[C@@H](C)[C@@H](O)[C@@H](C)[C@H](OC(C)=O)[C@@H]1C [Example 4, 3-[4-(3-Carboxy-1-cyclopropl-6-fluoro-4-oxo-1,4-dihydroquinolin-7-yl)piperazin-1-yl-aminomethylenyl]rifamycin SV]	0.008 to 1 µg/mL (≈ 0.00759 to 0.949 µM)	0.06 to 16 µg/mL (≈ 0.0569 to 15.2 µM)	0.008 to 0.125 µg/mL (≈ 0.00759 to 0.119 µM)	0.008 to 0.1 µg/mL (≈ 0.00759 to 0.0949 µM)	0.008 to 0.06 µg/mL (≈ 0.00759 to 0.0569 µM)	0.008 to 0.03 µg/mL (≈ 0.00759 to 0.0285 µM)	0.125 to 4 µg/mL (≈ 0.119 to 3.79 µM)
CO[C@H]1/C=C/O[C@@]2(C)Oc3c(C)c(O)c4c(c3C2=O)C(=O)C(/C=N/N2CCN(c3cc5c(cc3F)c(=O)c(C(=O)O)cn5C3CC3)CC2)=C(NC(=O)/C(C)=C\C=C\[C@H](C)[C@H](O)[C@@H](C)[C@@H](O)[C@@H](C)[C@H](OC(C)=O)[C@@H]1C)C4=O [Example 5, 3-[4-(3-Carboxy-1-cyclopropl-6-fluoro-4-oxo-1,4-dihydroquinolin-7-yl)-piperazin-1-yl-aminomethylenyl]rifamycin S]	0.008 to 1 µg/mL (≈ 0.0076 to 0.95 µM)	0.06 to 16 µg/mL (≈ 0.057 to 15.2 µM)	0.008 to 0.125 µg/mL (≈ 0.0076 to 0.119 µM)	0.008 to 0.1 µg/mL (≈ 0.0076 to 0.095 µM)	0.008 to 0.06 µg/mL (≈ 0.0076 to 0.057 µM)	0.008 to 0.03 µg/mL (≈ 0.0076 to 0.0285 µM)	0.125 to 4 µg/mL (≈ 0.119 to 3.8 µM)
